Assay results taken from patent US9745267B2, “Compounds as modulators of RORC” (Boehringer Ingelheim International GmbH, priority 2013, dated 2017).

Target: T1, RORγt (hRORC LBD) (Homo sapiens, UniProt P51449)
T1 construct: expressed in transfected cells; host or cells: HEK 293 (transient cotransfection with pGL4.3 luc2P/GAL4UAS/Hygro reporter)
T1 sequence (P51449 269-508 limits assumed): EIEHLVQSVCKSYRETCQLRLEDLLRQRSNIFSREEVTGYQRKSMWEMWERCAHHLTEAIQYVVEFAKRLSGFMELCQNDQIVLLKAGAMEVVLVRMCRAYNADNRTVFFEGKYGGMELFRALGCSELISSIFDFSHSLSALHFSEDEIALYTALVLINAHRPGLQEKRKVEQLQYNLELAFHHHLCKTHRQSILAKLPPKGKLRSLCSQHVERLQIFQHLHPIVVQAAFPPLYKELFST
Experiment: RGA Assay: nuclear receptor transactivation assay, RORγt transactivation of a luciferase reporter
Assay type: cell-based
Conditions: transiently transfected HEK 293 cells, Gal4DBD hRORC LBD, 20-24 hours incubation
Method: A nuclear receptor transactivation assay was performed to quantitate the ability of test compounds to inhibit RORγt transactivation of a luciferase reporter. A similar assay is described in: Khan et al., Bioorganic & Medicinal Chemistry Letters 23 (2013), 532-536. The system uses transiently transfected HEK 293 cells cotransfected with two plasmids (pGL4.3, luc2P/GAL4UAS/Hygro, and pBIND, Gal4DBD hRORC LBD1-3). The positive control is co-transiently transfected with both plasmids, and the negative control contains the pGL4.3 promoter sequence. Assays were assembled in 384 well plates where transiently transfected cells and test compound at varying concentrations were incubated for 20-24 hours. The next day, assays plates are taken out and equilibrated at RT for 20-30 minutes. Bright-Glo™ Luciferase Assay System is used to detect Luciferase production. After addition of Bright GLO detection reagent, the plates were incubated at RT for 20 minutes. The plates were read on an Envision plate reader to measure luminescence signal. The RLU signal is converted to POC relative to control and blank wells.
Compound Dilution Buffer:
Bright Glo Luciferase Assay System: Promega #E2620
Thaw lysis buffer provided in kit, add 100 mL lysis buffer to substrate powder.

CNS(=O)(=O)c1ccc(CNC(=O)N2CC3(CCCC3)c3cc(-c4cc(F)c(C#N)cc4C)ccc32)cc1 [Example 93]
IC50: 1200 nM

CNS(=O)(=O)c1ccc(CNC(=O)N2CC3(CCCC3)c3cc(C4=C(C)CCCC4)ccc32)cc1 [Example 95]
IC50: 340 nM

COc1ccc(-c2ccc3c(c2)C2(CCCC2)CN3C(=O)NCc2ccc(C#N)cc2OC)c(C(F)(F)F)c1 [Example 96]
IC50: 450 nM

COc1ccc(-c2ccc3c(c2)C2(CCCC2)CN3C(=O)NCc2ccc(C#N)c(C)c2)c(C(F)(F)F)c1 [Example 97]
IC50: 770 nM

CNS(=O)(=O)c1ccc(CNC(=O)N2CC3(CCCC3)c3cc(-c4cc(CN)ccc4C)ccc32)cc1 [Example 98]
IC50: 1200 nM

COCCOc1cc(C#N)ccc1CNC(=O)N1CC2(CCCC2)c2cc(-c3ccc(OC)cc3C(F)(F)F)ccc21 [Example 100]
IC50: 1200 nM

COCCOc1cc(S(C)(=O)=O)ccc1CNC(=O)N1CC2(CCCC2)c2cc(-c3ccc(OC)cc3C(F)(F)F)ccc21 [Example 101]
IC50: 1100 nM

COc1cc(C#N)ccc1CNC(=O)N1CC2(CCCC2)c2cc(-c3ccc(O)cc3C(F)(F)F)ccc21 [Example 102]
IC50: 180 nM

CNS(=O)(=O)c1ccc(CNC(=O)N2CC3(CCCC3)c3cc(-c4cc(CN5CCC(O)C5)ccc4C)ccc32)cc1 (centres unmarked) [Example 103]
IC50: 1800 nM

CCS(=O)(=O)c1ccc(CNC(=O)N2CC3(CCCC3)c3cc(-c4ccc(OC)cc4C(F)(F)F)ccc32)c(OC)c1 [Example 104]
IC50: 350 nM

COc1ccc(-c2ccc3c(c2)C2(CCCC2)CN3C(=O)NCc2ccc(S(C)(=O)=O)cc2OC)c(C(F)(F)F)c1 [Example 105]
IC50: 430 nM

CN(C)c1ncc(-c2ccc3c(c2)C2(CCCC2)CN3C(=O)NCc2ccc(S(C)(=O)=O)cc2)c(C(F)(F)F)n1 [Example 106]
IC50: 650 nM

CCC(C)c1ncncc1-c1ccc2c(c1)C1(CCCC1)CN2C(=O)NCc1ccc(S(C)(=O)=O)cc1 (centres unmarked) [Example 107]
IC50: 1500 nM

COc1ncc(-c2ccc3c(c2)C2(CCCC2)CN3C(=O)NCc2ccc(S(C)(=O)=O)cc2)c(C2CC2)n1 [Example 108]
IC50: 1600 nM

COc1ncnc(C)c1-c1ccc2c(c1)C1(CCCC1)CN2C(=O)NCc1ccc(S(C)(=O)=O)cc1 [Example 109]
IC50: 1700 nM

COc1ncnc(C(F)(F)F)c1-c1ccc2c(c1)C1(CCCC1)CN2C(=O)NCc1ccc(S(C)(=O)=O)cc1 [Example 110]
IC50: 600 nM

CCS(=O)(=O)c1ccc(CNC(=O)N2CC3(CCCC3)c3cc(-c4cnc(N)nc4C(F)(F)F)ccc32)cc1 [Example 111]
IC50: 1700 nM

CCS(=O)(=O)c1ccc(CNC(=O)N2CC3(CCCC3)c3cc(-c4c(OC)ncnc4C4CC4)ccc32)cc1 [Example 112]
IC50: 520 nM

CCS(=O)(=O)c1ccc(CNC(=O)N2CC(C)(C3CC3)c3cc(-c4cncnc4C(C)C)ccc32)cc1 (centres unmarked) [Example 113]
IC50: 530 nM

CCS(=O)(=O)c1ccc(CNC(=O)N2CC3(CCCC3)c3cc(-c4c(C)ccnc4OC)ccc32)cc1 [Example 114]
IC50: 500 nM

CCS(=O)(=O)c1ccc(CNC(=O)N2CC(C)(C3CCC3)c3cc(-c4cncnc4C(C)C)ccc32)cc1 (centres unmarked) [Example 116]
IC50: 1000 nM

CCS(=O)(=O)c1ccc(CNC(=O)N2CC(C)(C3CCC3)c3cc(-c4c(OC)ncnc4C4CC4)ccc32)cc1 (centres unmarked) [Example 117]
IC50: 480 nM

CCC1(C2CC2)CN(C(=O)NCc2ccc(S(=O)(=O)CC)cc2)c2ccc(-c3c(OC)ncnc3C3CC3)cc21 (centres unmarked) [Example 118]
IC50: 470 nM

CCS(=O)(=O)c1ccc(CNC(=O)N2CC3(CCCC3)c3cc(-c4cnc(N(C)C)nc4C4CC4)ccc32)cc1 [Example 119]
IC50: 320 nM

CCS(=O)(=O)c1ccc(CNC(=O)N2CC(C)(C3CC3)c3cc(-c4c(OC)ncnc4C4CC4)ccc32)cc1 (centres unmarked) [Example 120]
IC50: 280 nM

CCS(=O)(=O)c1ccc(CNC(=O)N2CC3(CCCC3)c3cc(-c4c(OC)ncnc4OC)ccc32)cc1 [Example 121]
IC50: 600 nM

CCS(=O)(=O)c1ccc(CNC(=O)N2CC3(CCCC3)c3cc(-c4c(OC)nc(C)nc4C4CC4)ccc32)cc1 [Example 122]
IC50: 1100 nM

CCS(=O)(=O)c1ccc(CNC(=O)N2CC3(CCCC3)c3cc(-c4cc(CN5CCC(C#N)CC5)ccc4C)ccc32)cc1 [Example 123]
IC50: 600 nM

CCS(=O)(=O)c1ccc(CNC(=O)N2CC3(CCCC3)c3cc(-c4cc(CN5CCS(=O)(=O)CC5)ccc4C)ccc32)cc1 [Example 124]
IC50: 1400 nM

CCS(=O)(=O)c1ccc(CNC(=O)N2CC3(CC3)c3cc(-c4c(OC)ncnc4C4CC4)ccc32)cc1 [Example 125]
IC50: 1100 nM

CCS(=O)(=O)c1ccc(CNC(=O)N2C[C@@](C)(C3CC3)c3cc(-c4c(OC)ncnc4C4CC4)ccc32)cc1 [Example 126]
IC50: 400 nM

CCS(=O)(=O)c1ccc(CNC(=O)N2C[C@](C)(C3CC3)c3cc(-c4c(OC)ncnc4C4CC4)ccc32)cc1 [Example 127]
IC50: 500 nM

CCS(=O)(=O)c1ccc(CNC(=O)N2CC3(CCC3)c3cc(-c4c(OC)ncnc4C4CC4)ccc32)cc1 [Example 128]
IC50: 210 nM

CCS(=O)(=O)c1ccc(CNC(=O)N2CC3(CCC3)c3cc(-c4c(OC)ncnc4C4CC4)ccc32)nc1 [Example 129]
IC50: 370 nM

CCS(=O)(=O)c1ccc(CNC(=O)N2CC3(CCCC3)c3cc(-c4c(OC)nc(N(C)C)nc4C4CC4)ccc32)cc1 [Example 130]
IC50: 310 nM
